Results taken from PubChem BioAssay (NCI).
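All cell lines were grown in 96-well plates and treated with compound for 48 hours. At the TGI there is no net growth.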

Key:
Test in all cases: NCI tumour cell line growth inhibition, 48 h
SN12C renal = test system: SN12C renal
COLO 205 colon = test system: COLO 205 colon
SNB-75 CNS = test system: SNB-75 CNS
DMS 273 small cell lung = test system: DMS 273 small cell lung
HCC-2998 colon = test system: HCC-2998 colon
KM20L2 colon = test system: KM20L2 colon
SNB-78 CNS = test system: SNB-78 CNS
UACC-62 melanoma = test system: UACC-62 melanoma
NCI-H460 lung = test system: NCI-H460 lung
UACC-257 melanoma = test system: UACC-257 melanoma
K-562 leukemia = test system: K-562 leukemia
LOX IMVI melanoma = test system: LOX IMVI melanoma
OVCAR-3 ovarian = test system: OVCAR-3 ovarian
UO-31 renal = test system: UO-31 renal
CCRF-CEM leukemia = test system: CCRF-CEM leukemia
DLD-1 colon = test system: DLD-1 colon
NCI-H23 lung = test system: NCI-H23 lung
OVCAR-4 ovarian = test system: OVCAR-4 ovarian
SNB-19 CNS = test system: SNB-19 CNS
SK-MEL-5 melanoma = test system: SK-MEL-5 melanoma
SR leukemia = test system: SR leukemia
OVCAR-5 ovarian = test system: OVCAR-5 ovarian
XF 498 CNS = test system: XF 498 CNS
SW-620 colon = test system: SW-620 colon
TK-10 renal = test system: TK-10 renal
SK-MEL-28 melanoma = test system: SK-MEL-28 melanoma
M14 melanoma = test system: M14 melanoma
A549 NSCLC = test system: A549 NSCLC
ACHN renal = test system: ACHN renal
NCI-H226 lung = test system: NCI-H226 lung
U251 CNS = test system: U251 CNS
SF-539 CNS = test system: SF-539 CNS
MOLT-4 leukemia = test system: MOLT-4 leukemia
HCT-15 colon = test system: HCT-15 colon
HL-60(TB) leukemia = test system: HL-60(TB) leukemia
SF-268 CNS = test system: SF-268 CNS
HT29 colon = test system: HT29 colon
DMS 114 small cell lung = test system: DMS 114 small cell lung
OVCAR-8 ovarian = test system: OVCAR-8 ovarian
M19-MEL melanoma = test system: M19-MEL melanoma
786-0 renal = test system: 786-0 renal
EKVX NSCLC = test system: EKVX NSCLC
HCT-116 colon = test system: HCT-116 colon
SF-295 CNS = test system: SF-295 CNS
RXF 393 renal = test system: RXF 393 renal
HOP-62 NSCLC = test system: HOP-62 NSCLC
KM12 colon = test system: KM12 colon
RPMI-8226 leukemia = test system: RPMI-8226 leukemia
SK-OV-3 ovarian = test system: SK-OV-3 ovarian
IGROV1 ovarian = test system: IGROV1 ovarian
LXFL 529 NSCLC = test system: LXFL 529 NSCLC
CAKI-1 renal = test system: CAKI-1 renal
MALME-3M melanoma = test system: MALME-3M melanoma
A498 renal = test system: A498 renal
RXF-631 renal = test system: RXF-631 renal
NCI-H522 lung = test system: NCI-H522 lung
SK-MEL-2 melanoma = test system: SK-MEL-2 melanoma
HOP-92 NSCLC = test system: HOP-92 NSCLC
HOP-18 NSCLC = test system: HOP-18 NSCLC

Compound `NC(=O)NC1=NC(Cc2ccccc2)C(=O)N1Cc1ccccc1` (stereo not drawn) has a TGI (SN12C renal) greater than 100 µM, a TGI (COLO 205 colon) greater than 100 µM and a TGI (SNB-75 CNS) greater than 100 µM. The TGI (DMS 273 small cell lung) was greater than 100 µM, the TGI (HCC-2998 colon) was greater than 100 µM and the TGI (KM20L2 colon) was greater than 100 µM. For the same compound, the TGI (SNB-78 CNS) was greater than 100 µM, the TGI (UACC-62 melanoma) was greater than 100 µM and the TGI (NCI-H460 lung) was greater than 100 µM. For the same compound, the TGI (UACC-257 melanoma) was greater than 100 µM, the TGI (K-562 leukemia) was greater than 100 µM and the TGI (LOX IMVI melanoma) was greater than 100 µM. It also gave a TGI (OVCAR-3 ovarian) greater than 100 µM, a TGI (UO-31 renal) greater than 100 µM and a TGI (CCRF-CEM leukemia) greater than 100 µM. For the same compound, the TGI (DLD-1 colon) was greater than 100 µM, the TGI (NCI-H23 lung) was greater than 100 µM and the TGI (OVCAR-4 ovarian) was greater than 100 µM. For the same compound, the TGI (SNB-19 CNS) was greater than 100 µM, the TGI (SK-MEL-5 melanoma) was greater than 100 µM and the TGI (SR leukemia) was greater than 100 µM. The TGI (OVCAR-5 ovarian) was greater than 100 µM, the TGI (XF 498 CNS) was greater than 100 µM and the TGI (SW-620 colon) was greater than 100 µM. For the same compound, the TGI (TK-10 renal) was greater than 100 µM, the TGI (SK-MEL-28 melanoma) was greater than 100 µM and the TGI (M14 melanoma) was greater than 100 µM. It also gave a TGI (A549 NSCLC) greater than 100 µM, a TGI (ACHN renal) greater than 100 µM and a TGI (NCI-H226 lung) greater than 100 µM. The TGI (U251 CNS) was greater than 100 µM, the TGI (SF-539 CNS) was greater than 100 µM and the TGI (MOLT-4 leukemia) was greater than 100 µM. It also gave a TGI (HCT-15 colon) greater than 100 µM, a TGI (HL-60(TB) leukemia) greater than 100 µM and a TGI (SF-268 CNS) greater than 100 µM. For the same compound, the TGI (HT29 colon) was greater than 100 µM, the TGI (DMS 114 small cell lung) was greater than 100 µM and the TGI (OVCAR-8 ovarian) was greater than 100 µM. The TGI (M19-MEL melanoma) was greater than 100 µM, the TGI (786-0 renal) was greater than 100 µM and the TGI (EKVX NSCLC) was greater than 100 µM. It also gave a TGI (HCT-116 colon) greater than 100 µM, a TGI (SF-295 CNS) greater than 100 µM and a TGI (RXF 393 renal) greater than 100 µM. The TGI (HOP-62 NSCLC) was greater than 100 µM, the TGI (KM12 colon) was greater than 100 µM and the TGI (RPMI-8226 leukemia) was greater than 100 µM. It also gave a TGI (SK-OV-3 ovarian) greater than 100 µM, a TGI (IGROV1 ovarian) greater than 100 µM and a TGI (LXFL 529 NSCLC) greater than 100 µM.
With `COc1cc(Nc2nc3cc(C(F)(F)F)ccc3nc2-c2ccccc2)cc(OC)c1OC` the TGI (SN12C renal) was greater than 100 µM, the TGI (COLO 205 colon) was greater than 100 µM and the TGI (SNB-75 CNS) was greater than 100 µM. It also gave a TGI (DMS 273 small cell lung) greater than 100 µM, a TGI (HCC-2998 colon) greater than 100 µM and a TGI (SNB-78 CNS) greater than 100 µM. For the same compound, the TGI (UACC-62 melanoma) was greater than 100 µM, the TGI (NCI-H460 lung) was greater than 100 µM and the TGI (UACC-257 melanoma) was greater than 100 µM. It also gave a TGI (K-562 leukemia) greater than 100 µM, a TGI (LOX IMVI melanoma) greater than 100 µM and a TGI (OVCAR-3 ovarian) greater than 100 µM. For the same compound, the TGI (UO-31 renal) was greater than 100 µM, the TGI (CCRF-CEM leukemia) was greater than 100 µM and the TGI (DLD-1 colon) was greater than 100 µM. The TGI (NCI-H23 lung) was greater than 100 µM, the TGI (OVCAR-4 ovarian) was 51.3 µM and the TGI (SK-MEL-5 melanoma) was greater than 100 µM. It also gave a TGI (SR leukemia) greater than 100 µM, a TGI (OVCAR-5 ovarian) greater than 100 µM and a TGI (CAKI-1 renal) of 0.0575 µM. It also gave a TGI (MALME-3M melanoma) greater than 100 µM, a TGI (XF 498 CNS) of 55.2 µM and a TGI (SW-620 colon) greater than 100 µM. It also gave a TGI (TK-10 renal) of 77 µM, a TGI (SK-MEL-28 melanoma) greater than 100 µM and a TGI (M14 melanoma) greater than 100 µM. It also gave a TGI (A549 NSCLC) greater than 100 µM, a TGI (ACHN renal) greater than 100 µM and a TGI (NCI-H226 lung) greater than 100 µM. The TGI (U251 CNS) was greater than 100 µM, the TGI (A498 renal) was greater than 100 µM and the TGI (SF-539 CNS) was greater than 100 µM. It also gave a TGI (MOLT-4 leukemia) greater than 100 µM, a TGI (RXF-631 renal) greater than 100 µM and a TGI (HCT-15 colon) greater than 100 µM. It also gave a TGI (HL-60(TB) leukemia) greater than 100 µM, a TGI (SF-268 CNS) greater than 100 µM and a TGI (HT29 colon) greater than 100 µM. For the same compound, the TGI (DMS 114 small cell lung) was greater than 100 µM, the TGI (OVCAR-8 ovarian) was greater than 100 µM and the TGI (786-0 renal) was greater than 100 µM. It also gave a TGI (EKVX NSCLC) greater than 100 µM, a TGI (NCI-H522 lung) of 83.4 µM and a TGI (SK-MEL-2 melanoma) greater than 100 µM. For the same compound, the TGI (SF-295 CNS) was greater than 100 µM, the TGI (HOP-92 NSCLC) was 20.7 µM and the TGI (RXF 393 renal) was 63.8 µM. The TGI (HOP-62 NSCLC) was 94.6 µM, the TGI (KM12 colon) was greater than 100 µM and the TGI (SK-OV-3 ovarian) was greater than 100 µM. It also gave a TGI (IGROV1 ovarian) greater than 100 µM and a TGI (LXFL 529 NSCLC) greater than 100 µM.
For `COc1ccc(-c2cc(-c3cc(C)ccc3O)[nH]c(=O)n2)cc1`, the TGI (SN12C renal) was greater than 100 µM, the TGI (COLO 205 colon) was greater than 100 µM and the TGI (SNB-75 CNS) was 66.8 µM. The TGI (DMS 273 small cell lung) was greater than 100 µM, the TGI (HCC-2998 colon) was greater than 100 µM and the TGI (KM20L2 colon) was greater than 100 µM. The TGI (SNB-78 CNS) was greater than 100 µM, the TGI (UACC-62 melanoma) was greater than 100 µM and the TGI (NCI-H460 lung) was greater than 100 µM. The TGI (UACC-257 melanoma) was greater than 100 µM, the TGI (K-562 leukemia) was greater than 100 µM and the TGI (LOX IMVI melanoma) was greater than 100 µM. It also gave a TGI (OVCAR-3 ovarian) greater than 100 µM, a TGI (UO-31 renal) greater than 100 µM and a TGI (CCRF-CEM leukemia) greater than 100 µM. It also gave a TGI (DLD-1 colon) greater than 100 µM, a TGI (NCI-H23 lung) greater than 100 µM and a TGI (OVCAR-4 ovarian) greater than 100 µM. For the same compound, the TGI (SNB-19 CNS) was greater than 100 µM, the TGI (SR leukemia) was greater than 100 µM and the TGI (CAKI-1 renal) was greater than 100 µM. The TGI (MALME-3M melanoma) was greater than 100 µM, the TGI (SW-620 colon) was greater than 100 µM and the TGI (TK-10 renal) was greater than 100 µM. It also gave a TGI (SK-MEL-28 melanoma) greater than 100 µM, a TGI (M14 melanoma) greater than 100 µM and a TGI (A549 NSCLC) greater than 100 µM. It also gave a TGI (ACHN renal) greater than 100 µM, a TGI (NCI-H226 lung) greater than 100 µM and a TGI (U251 CNS) greater than 100 µM. The TGI (HOP-18 NSCLC) was greater than 100 µM, the TGI (A498 renal) was greater than 100 µM and the TGI (SF-539 CNS) was greater than 100 µM. For the same compound, the TGI (MOLT-4 leukemia) was greater than 100 µM, the TGI (RXF-631 renal) was greater than 100 µM and the TGI (HL-60(TB) leukemia) was greater than 100 µM. For the same compound, the TGI (SF-268 CNS) was greater than 100 µM, the TGI (HT29 colon) was greater than 100 µM and the TGI (DMS 114 small cell lung) was greater than 100 µM. The TGI (OVCAR-8 ovarian) was greater than 100 µM, the TGI (M19-MEL melanoma) was greater than 100 µM and the TGI (786-0 renal) was greater than 100 µM. The TGI (EKVX NSCLC) was greater than 100 µM, the TGI (NCI-H522 lung) was 94 µM and the TGI (HCT-116 colon) was greater than 100 µM. For the same compound, the TGI (SF-295 CNS) was greater than 100 µM, the TGI (HOP-92 NSCLC) was greater than 100 µM and the TGI (RXF 393 renal) was 88.6 µM. It also gave a TGI (HOP-62 NSCLC) of 76.4 µM, a TGI (KM12 colon) greater than 100 µM and a TGI (RPMI-8226 leukemia) greater than 100 µM. For the same compound, the TGI (SK-OV-3 ovarian) was greater than 100 µM, the TGI (IGROV1 ovarian) was greater than 100 µM and the TGI (LXFL 529 NSCLC) was greater than 100 µM.
